Measured values as given in patent US11332463B2, “Spiropiperidine allosteric modulators of nicotinic acetylcholine receptors” (Merck Sharp & Dohme Corp., priority 2018, dated 2022).
Like-named read-outs stand apart in the source and are kept apart here.

Biological target: T1, human α7 nicotinic acetylcholine receptor (HEK cell line stably expressing human RIC-3 and human α7) (Homo sapiens, UniProt P36544)
T1 construct: host or cells: HEK cell line (PrecisION hnAChR α7/RIC-3)
Assay: Automated patch-clamp electrophysiology functional assay (Assay A), IonFlux HT, whole-cell population patch
Assay type: cell-based
Procedure: The α7 nAChR positive allosteric modulator (PAM) activity of the present compounds may be tested using assays known in the art. […] The assay was performed using the IonFlux HT in a whole-cell, population patch configuration. See Golden et al. Assay Drug Dev. Technol. […] The compounds were assessed for their ability to modulate the function of the human 7 nAChR stably expressed in a HEK cell line both in the presence, and in the absence of the natural 7 agonist acetylcholine. By performing a series of such measurements at different concentrations, the effective concentration of the 7 nAChR PAMs (EC50) was determined. See Spencer et al. Assay Drug Dev. Technol.
Direct activation of α7 (agonism), and potentiation of acetylcholine-evoked 7 currents was determined as follows:
Automated patch-clamp electrophysiology was performed using the IonFlux HT (Fluxion Biosciences Inc., San Francisco, Calif.) in the whole-cell, population patch configuration. Test compounds were assessed for their ability to modulate the function of the α7 nicotinic acetylcholine receptor both in the presence, and in the absence of the natural α7 agonist acetylcholine. […] Immediately prior to assay, cells were detached by first aspirating growth media, rinsing with Dulbecco's phosphate buffered saline, and then adding 10 mL of Accutase (Innovative Cell Technologies, San Diego, Calif.) to the flask and then incubating at 37° C. for 5 minutes. Detached cells were then recovered by the addition of 40 mL of CHO-serum-free media supplemented with 25 mM HEPES, and rocked gently in a 50 mL conical tube for 20 minutes prior to patch-clamp assay. After recovery, cells were pelleted by centrifugation at 1,000 RPM for 1 minute in a compact bench top centrifuge; recovery media was aspirated and cells were resuspended in external recording solution (150 mM NaCl, 5 mM KCl, 2 mM CaCl2), 1 mM MgCl2, 10 mM HEPES, 12 mM dextrose) to a density of 5.0×10^6 cells/mL. The cell suspension was added to the cell inlet wells on an IonFlux HT population patch plate which had previously been rinsed and primed with deionized H2O. Test compounds were serially diluted in DMSO and then resuspended to the final test concentration in external recording solution, with, or without 40 μM acetylcholine added to the external recording solution; test compounds were then transferred to the IonFlux HT population patch plate. Internal recording solution (110 mM TrisPO4, 28 mM TrisBase, 0.1 mM CaCl2, 2 mM MgCl2, 11 mM EGTA, 4 mM MgATP) was added to the internal recording solution inlet wells on the IonFlux HT patch plate previously loaded with cells and test compounds, and the plate loaded into the IonFlux HT instrument. A protocol was executed on the IonFlux HT to trap the cells, break into the cells, and establish the whole-cell recording configuration; cells were voltage-clamped at a holding potential of −60 mV for the duration of the experiment, all experiments were conducted at room temperature, and the IonFlux HT injection pressure was 8 psi for solution applications. Upon establishing the whole-cell configuration, external recording solution was perfused into the recording chambers for 120 seconds and then 40 μM acetylcholine was applied for 1 second and immediately washed off with external recording solution for 60 seconds. The 40 μM acetylcholine-evoked α7 current served as the current response to which subsequent test compound effects, in the presence, or in the absence of 40 μM acetylcholine would be quantified relative to. Next, test compounds were evaluated at multiple concentrations for their ability to induce, or modulate 7 current responses; three concentrations of test compound were evaluated in ascending dose fashion per recording.

[1] = HEK cells expressing human α7/RIC-3, test compound with or without 40 μM acetylcholine, holding potential −60 mV, room temperature, read-out: α7 nAChR Potency
[2] = automated patch-clamp electrophysiology functional assay (Assay A), read-out: α7 nAChR EC50

T1 sequence (P36544 23-502): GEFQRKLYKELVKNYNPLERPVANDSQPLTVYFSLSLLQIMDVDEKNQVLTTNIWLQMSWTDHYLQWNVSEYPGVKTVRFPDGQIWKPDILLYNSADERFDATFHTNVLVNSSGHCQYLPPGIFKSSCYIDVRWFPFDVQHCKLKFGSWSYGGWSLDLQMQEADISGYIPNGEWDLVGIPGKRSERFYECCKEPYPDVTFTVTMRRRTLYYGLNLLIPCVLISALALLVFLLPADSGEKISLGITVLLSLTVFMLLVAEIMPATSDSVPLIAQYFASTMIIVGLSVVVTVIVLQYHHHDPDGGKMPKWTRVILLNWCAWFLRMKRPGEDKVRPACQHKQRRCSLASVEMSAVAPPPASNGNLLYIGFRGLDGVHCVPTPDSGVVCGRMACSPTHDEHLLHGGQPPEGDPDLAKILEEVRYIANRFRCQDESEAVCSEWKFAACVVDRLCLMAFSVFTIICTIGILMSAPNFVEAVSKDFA

SMILES | EC50 [1] [nM] | EC50 [2] [nM]
NS(=O)(=O)N1CCC2(CC1)[C@H](c1noc(-c3ccnc(OC(F)F)c3)n1)C2(F)F [Example 10, (2R)-2-{5-[2-(Difluoromethoxy)pyridin-4-yl]-1,2,4-oxadiazol-3-yl}-1,1-difluoro-6-azaspiro[2.5]octane-6-sulfonamide] | 100 to 500 | 220
NS(=O)(=O)N1CCC2(CC1)[C@H](c1nc(-c3conc3C3CC3)no1)C2(F)F [Example 11, (2R)-2-[3-(3-Cyclopropylisoxazol-4-yl)-1,2,4-oxadiazol-5-yl]-1,1-difluoro-6-azaspiro[2.5]octane-6-sulfonamide] | < 100 | 58
NS(=O)(=O)N1CCC2(CC1)[C@H](c1nc(-c3ccnn3CC(F)(F)F)no1)C2(F)F [Example 12, (2R)-1,1-Difluoro-2-{3-[1-(2,2,2-trifluoroethyl)-1H-pyrazol-5-yl]-1,2,4-oxadiazol-5-yl}-6-azaspiro[2.5]octane-6-sulfonamide] | 100 to 500 | 220
Cc1cnc(OC(F)F)cc1-c1nc([C@@H]2C(F)(F)C23CCN(S(N)(=O)=O)CC3)no1 [Example 13, (2R)-2-{5-[2-(Difluoromethoxy)-5-methylpyridin-4-yl]-1,2,4-oxadiazol-3-yl}-1,1-difluoro-6-azaspiro[2.5]octane-6-sulfonamide] | < 100 | 73
Cn1ncc(C(F)(F)F)c1-c1nc([C@@H]2C(F)(F)C23CCN(S(N)(=O)=O)CC3)no1 [Example 14, (2R)-1,1-Difluoro-2-{5-[1-methyl-4-(trifluoromethyl)-1H-pyrazol-5-yl]-1,2,4-oxadiazol-3-yl}-6-azaspiro[2.5]octane-6-sulfonamide] | < 100 | 49
NS(=O)(=O)N1CCC2(CC1)C[C@H]2c1cnn(-c2cccc(OC(F)(F)F)c2)c1 [Example 15, (1R)-1-{1-[3-(Trifluoromethoxy)phenyl]-1H-pyrazol-4-yl}-6-azaspiro[2.5]octane-6-sulfonamide] | 100 to 500 | 330
NS(=O)(=O)N1CCC2(CC1)[C@H](c1nnc(-c3ccnn3C3CC3)o1)C2(F)F [Example 16, (2R)-2-[5-(1-Cyclopropyl-1H-pyrazol-5-yl)-1,3,4-oxadiazol-2-yl]-1,1-difluoro-6-azaspiro[2.5]octane-6-sulfonamide] | 100 to 500 | 450
NS(=O)(=O)N1CCC2(CC1)[C@H](c1nnc(-c3ccnn3C3CC3)s1)C2(F)F [Example 17, (2S)-2-[5-(1-Cyclopropyl-1H-pyrazol-5-yl)-1,3,4-thiadiazol-2-yl]-1,1-difluoro-6-azaspiro[2.5]octane-6-sulfonamide] | 500 to 5000 | 550
NS(=O)(=O)N1CCC2(CC1)[C@H](c1noc(-c3cnn4c3CSCC4)n1)C2(F)F [Example 18, (2R)-2-[5-(6,7-Dihydro-4H-pyrazolo[5,1-c][1,4]thiazin-3-yl)-1,2,4-oxadiazol-3-yl]-1,1-difluoro-6-azaspiro[2.5]octane-6-sulfonamide] | 500 to 5000 | 800
Cn1cc(-c2nc([C@@H]3C(F)(F)C34CCN(S(N)(=O)=O)CC4)no2)c(C(F)(F)F)n1 [Example 19, (2R)-1,1-Difluoro-2-{5-[1-methyl-3-(trifluoromethyl)-1H-pyrazol-4-yl]-1,2,4-oxadiazol-3-yl}-6-azaspiro[2.5]octane-6-sulfonamide] | 100 to 500 | 240
Cn1nc2c(c1-c1nc([C@@H]3C(F)(F)C34CCN(S(N)(=O)=O)CC4)no1)CCC2 [Example 20, (2R)-1,1-Difluoro-2-[5-(2-methyl-2,4,5,6-tetrahydrocyclopenta[c]pyrazol-3-yl)-1,2,4-oxadiazol-3-yl]-6-azaspiro[2.5]octane-6-sulfonamide] | < 100 | 98
CS(=O)(=O)N1CCC2(CC1)C(c1nc(-c3ccc(F)cc3C(F)(F)F)no1)C2(F)F (stereo not shown) [Example 21, 1,1-Difluoro-2-{3-[4-fluoro-2-(trifluoromethyl)phenyl]-1,2,4-oxadiazol-5-yl}-6-(methylsulfonyl)-6-azaspiro[2.5]octane] | 500 to 5000 | 670
Cc1nn(C)c(-c2nc([C@@H]3C(F)(F)C34CCN(S(N)(=O)=O)CC4)no2)c1C [Example 22, (2R)-1,1-Difluoro-2-[5-(1,3,4-trimethyl-1H-pyrazol-5-yl)-1,2,4-oxadiazol-3-yl]-6-azaspiro[2.5]octane-6-sulfonamide] | < 100 | 99
NS(=O)(=O)N1CCC2(CC1)C[C@H]2c1nc(-c2conc2C2CC2)co1 [Example 23, (1R)-1-[4-(3-Cyclopropylisoxazol-4-yl)-1,3-oxazol-2-yl]-6-azaspiro[2.5]octane-6-sulfonamide] | 500 to 5000 | 1400
NS(=O)(=O)N1CCC2(CC1)[C@H](c1coc(-c3ccc(F)cc3C(F)(F)F)n1)C2(F)F [Example 24, (2R)-1,1-Difluoro-2-{2-[4-fluoro-2-(trifluoromethyl)phenyl]-1,3-oxazol-4-yl}-6-azaspiro[2.5]octane-6-sulfonamide] | < 100 | 90
Cc1cn(C2CC2)nc1-c1nc([C@@H]2C(F)(F)C23CCN(S(N)(=O)=O)CC3)no1 [Example 25, (2R)-2-[5-(1-Cyclopropyl-4-methyl-1H-pyrazol-3-yl)-1,2,4-oxadiazol-3-yl]-1,1-difluoro-6-azaspiro[2.5]octane-6-sulfonamide] | 100 to 500 | 210
CCn1nc(-c2nc([C@@H]3CC34CCN(S(N)(=O)=O)CC4)no2)cc1C [Example 27, (1R)-1-[5-(1-Ethyl-5-methyl-TH-pyrazol-3-yl)-1,2,4-oxadiazol-3-yl]-6-azaspiro[2.5]octane-6-sulfonamide] | 500 to 5000 | 4000
Cc1onc(C2CC2)c1-c1cnc([C@@H]2CC23CCN(S(N)(=O)=O)CC3)o1 [Example 28, (1R)-1-[5-(3-Cyclopropyl-5-methylisoxazol-4-yl)-1,3-oxazol-2-yl]-6-azaspiro[2.5]octane-6-sulfonamide] | 100 to 500 | 120
NS(=O)(=O)N1CCC2(CC1)[C@H](c1noc(-c3cc(C(F)(F)F)nn3C3CC3)n1)C2(F)F [Example 29, (2R)-2-{5-[1-Cyclopropyl-3-(trifluoromethyl)-1H-pyrazol-5-yl]-1,2,4-oxadiazol-3-yl}-1,1-difluoro-6-azaspiro[2.5]octane-6-sulfonamide] | 100 to 500 | 170
Cc1ccc(C2CC2)c(-c2nc([C@@H]3C(F)(F)C34CCN(S(N)(=O)=O)CC4)no2)c1 [Example 30, (2R)-2-[5-(2-Cyclopropyl-5-methylphenyl)-1,2,4-oxadiazol-3-yl]-1,1-difluoro-6-azaspiro[2.5]octane-6-sulfonamide] | < 100 | 2.4
NS(=O)(=O)N1CCC2(CC1)[C@H](c1coc(-c3conc3C3CC3)n1)C2(F)F [Example 31, (2R)-2-[2-(3-Cyclopropylisoxazol-4-yl)-1,3-oxazol-4-yl]-1,1-difluoro-6-azaspiro[2.5]octane-6-sulfonamide] | 100 to 500 | 130
Cc1ccccc1-c1nc([C@@H]2CC23CCN(S(N)(=O)=O)CC3)no1 [Example 33, (1R)-1-[5-(2-Methylphenyl)-1,2,4-oxadiazol-3-yl]-6-azaspiro[2.5]octane-6-sulfonamide] | 100 to 500 | 390
Cc1ccc(C)c(-c2nc([C@@H]3C(F)(F)C34CCN(S(N)(=O)=O)CC4)no2)c1 [Example 34, (2R)-2-[5-(2,5-Dimethylphenyl)-1,2,4-oxadiazol-3-yl]-1,1-difluoro-6-azaspiro[2.5]octane-6-sulfonamide] | < 100 | 4.5
